Laboratory results: PubChem BioAssay (NCI)
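Growth conditions: 96-well plates. Treatment: test compound, 48 hours, 5 concentrations. Analysis: linear interpolation between bracketing concentrations; unreached endpoints set to highest concentration. The concentration for 50% growth inhibition is given as GI50. TGI is the concentration that stops growth completely.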

Test system: CCRF-CEM leukemia
Experiment: DTP human tumour cell line panel, 48 h

Question: With `COc1ccc(-c2noc(N)c2-c2cc(OC)c3c(c2)OCO3)cc1` as the compound, how does the GI50 read?
Answer: Its GI50 is 1.45 µM.

Question: And the TGI?
Answer: Its TGI is greater than 35.8 µM.

Question: Which GI50 does the source give for `NCCCn1c2c(c3ccccc3c1=O)C(=O)c1ccccc1-2` here?
Answer: Its GI50 is less than 0.0462 µM.

Question: And the TGI?
Answer: Its TGI is 0.375 µM.

Question: `O=C1c2ccccc2C(=O)c2c(NCCN=Cc3ccccc3O)cccc21` was tested. Which GI50 did it give?
Answer: The GI50 was 1.43 µM.

Question: What about the TGI of the same compound?
Answer: Its TGI is 3.88 µM.

Question: `Oc1ccc(/C=C/c2cc(O)cc3c2C(c2cc(O)cc(O)c2)C(c2ccc(O)c(O)c2)O3)cc1` (centres undefined) was tested. Which TGI did it give?
Answer: Its TGI is greater than 100 µM.

Question: For `CC1(C)N=C(N)N=C(N)N1c1cccc(OCCOc2cccc([N+](=O)[O-])c2)c1`, which GI50 is on record?
Answer: Its GI50 is 1.23 µM.

Question: And the TGI?
Answer: Its TGI is greater than 100 µM.

Question: For `O=C(NC1CCCCC1)c1ccc(Nc2ncnc3c2cnn3-c2ccccc2)cc1`, which GI50 is on record?
Answer: The GI50 was greater than 100 µM.

Question: What about the TGI of the same compound?
Answer: Its TGI is greater than 100 µM.

Question: `CCc1nc(Cl)c(Cl)c(Cl)n1` was tested. Which TGI did it give?
Answer: The TGI was greater than 100 µM.

Question: `O=[N+]([O-])c1ccc(Sc2c3ccccc3nc3ccccc23)cn1` was tested. Which TGI did it give?
Answer: Its TGI is 8.3 µM.

Question: Which results are given for `C=CCn1c(SCC(=O)Nc2ccc(C(=O)/C=C/c3cc(OC)c(OC)c(OC)c3)cc2)nnc1-c1ccc(OC)cc1`?
Answer: GI50: 0.344 µM; TGI: > 100 µM

Question: For `Clc1nc(Cl)c2ncn(Cc3ccccc3Cn3cnc4c(Cl)nc(Cl)nc43)c2n1`, which GI50 is on record?
Answer: Its GI50 is 1.42 µM.

Question: And the TGI?
Answer: Its TGI is 3.14 µM.

Question: For `COc1ccc(-c2ccc(NNC(=O)c3ccc(F)cc3)nn2)cc1OC`, which GI50 is on record?
Answer: The GI50 was 38 µM.

Question: And the TGI?
Answer: Its TGI is greater than 100 µM.

Question: For `O=C(N/N=C/c1ccc(O)cc1O)c1cccnc1`, which GI50 is on record?
Answer: Its GI50 is 0.971 µM.

Question: And the TGI?
Answer: Its TGI is greater than 100 µM.

Question: With `O=C(NNc1cnccn1)c1nc2cc(F)ccc2n2cccc12` as the compound, how does the GI50 read?
Answer: The GI50 was 0.211 µM.

Question: And the TGI?
Answer: Its TGI is greater than 100 µM.

Question: Which results are given for `NCCCOc1cc2ccccc2cc1C(=O)NCCCOc1cc2ccccc2cc1C(=O)Nc1ccc(Cl)cc1O`?
Answer: GI50: 0.334 µM; TGI: 11.5 µM

Question: `NC(N)=N/N=C(\N=Nc1ccccc1)c1ccc(Cl)cc1` was tested. Which GI50 did it give?
Answer: Its GI50 is 1.76 µM.

Question: What about the TGI of the same compound?
Answer: The TGI was 5.78 µM.

Question: Which GI50 does the source give for `Cc1cc(NCCCCNc2ccnc3cc(Cl)ccc23)nc(Nc2ccc(C(=O)N3CCCCC3)cc2)n1` here?
Answer: The GI50 was 0.608 µM.

Question: What about the TGI of the same compound?
Answer: The TGI was 7.55 µM.

Question: For `c1ccc2c(c1)c1ccccc1c1ccccc21`, which GI50 is on record?
Answer: The GI50 was greater than 100 µM.

Question: And the TGI?
Answer: Its TGI is greater than 100 µM.

Question: For `Cc1c2c(C(N)=O)nccc2c(C)c2c1c1ccccc1n2Cc1ccccc1`, which TGI is on record?
Answer: Its TGI is 62.6 µM.

Test system: RPMI-8226 leukemia
Experiment: DTP human tumour cell line panel, 48 h

Question: Which results are given for `COc1ccc(-c2nn(-c3cccc(Cl)c3)cc2-c2nc(N)[nH]c(=O)c2C#N)cc1`?
Answer: GI50: 5.63 µM; TGI: 55.5 µM

Question: For `COc1cc2c3c(n(CCCN(CCO)CCO)c(=O)c2cc1OC)-c1cc2c(cc1C3=O)OCO2`, which GI50 is on record?
Answer: Its GI50 is less than 0.01 µM.

Question: And the TGI?
Answer: Its TGI is 0.207 µM.

Question: How did the GI50 turn out when `CNCCn1c(=O)c2cc(OC)c(OC)cc2c2cnc3cc4c(cc3c21)OCO4` was run?
Answer: The GI50 was 0.0254 µM.

Question: What about the TGI of the same compound?
Answer: The TGI was 0.915 µM.

Question: Which results are given for `O=C(CCN1CCOCC1)Nc1cccc(-n2cc(-c3ccncc3)c(-c3ccc(Cl)c(O)c3)n2)c1`?
Answer: GI50: 2.8 µM; TGI: 15.1 µM

Question: `C=C(C)[C@@H]1CC[C@]2(C)[C@H](CC[C@@H]3[C@@H]([C@@](C)(O)CCC=C(C)C)CC[C@]32C)[C@@]1(C)CCC(=O)O` was tested. Which GI50 did it give?
Answer: Its GI50 is 12.2 µM.

Question: And the TGI?
Answer: The TGI was 38.2 µM.

Question: With `c1ccc(NCCSc2nc3ccccc3s2)cc1` as the compound, how does the TGI read?
Answer: Its TGI is greater than 100 µM.

Question: With `Oc1ccc(Oc2cnc3ccccc3n2)cc1` as the compound, how does the GI50 read?
Answer: Its GI50 is greater than 100 µM.

Question: And the TGI?
Answer: The TGI was greater than 100 µM.

Question: How did the TGI turn out when `Cc1ccc2occ/c(=N\Nc3ccccc3)c2c1` was run?
Answer: The TGI was greater than 100 µM.

Question: For `CC(=O)NC1CONC1=O` (centres undefined), which TGI is on record?
Answer: The TGI was greater than 100 µM.

Question: Which results are given for `Oc1ccc(N=Nc2nccs2)c(O)c1`?
Answer: GI50: 1.62 µM; TGI: 4.91 µM

Question: Which results are given for `COc1ccc2c(c1)C(C)Cc1c(ncnc1-n1cnc3ccccc31)N2C` (centres undefined)?
Answer: GI50: 0.556 µM; TGI: 27.6 µM

Question: For `COc1ccc(-c2noc(N)c2-c2cc(OC)c3c(c2)OCO3)cc1`, which GI50 is on record?
Answer: Its GI50 is 3.25 µM.

Question: And the TGI?
Answer: Its TGI is greater than 49.9 µM.

Question: For `NCCCn1c2c(c3ccccc3c1=O)C(=O)c1ccccc1-2`, which TGI is on record?
Answer: Its TGI is 0.528 µM.

Question: With `O=C1c2ccccc2C(=O)c2c(NCCN=Cc3ccccc3O)cccc21` as the compound, how does the GI50 read?
Answer: The GI50 was 0.714 µM.

Question: What about the TGI of the same compound?
Answer: Its TGI is 2.62 µM.

Question: With `Oc1ccc(/C=C/c2cc(O)cc3c2C(c2cc(O)cc(O)c2)C(c2ccc(O)c(O)c2)O3)cc1` (centres undefined) as the compound, how does the TGI read?
Answer: The TGI was 40.6 µM.

Question: Which results are given for `CC1(C)N=C(N)N=C(N)N1c1cccc(OCCOc2cccc([N+](=O)[O-])c2)c1`?
Answer: GI50: 4.01 µM; TGI: > 100 µM
